Experimental data reported in patent US10065941B2, “Aminotriazine derivative and pharmaceutical composition comprising the same” (Shionogi & Co., Ltd., priority 2013, dated 2018).

molecular target: human P2X3 receptor (Homo sapiens (Human), UniProt P56373); test: Evaluation of human P2X3 receptor inhibitory activity (Test Example 1); format: cell-based; details: C6BU-1 cell transfected with human P2X3 receptor gene, FLIPR 384
Outline: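 FLIPR calcium read-out: signal taken as peak fluorescence after ATP addition divided by starting fluorescence, and IC50 calculated from it. Compound added 5 min before 150 nM ATP solution (pre-dispense stock) to Fluo-3-AM-loaded C6BU-1 cells stably transfected with human P2X3; HEPES buffer pH 7.5 with probenecid.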

human P2X3 receptor, sequence (P56373 whole entry): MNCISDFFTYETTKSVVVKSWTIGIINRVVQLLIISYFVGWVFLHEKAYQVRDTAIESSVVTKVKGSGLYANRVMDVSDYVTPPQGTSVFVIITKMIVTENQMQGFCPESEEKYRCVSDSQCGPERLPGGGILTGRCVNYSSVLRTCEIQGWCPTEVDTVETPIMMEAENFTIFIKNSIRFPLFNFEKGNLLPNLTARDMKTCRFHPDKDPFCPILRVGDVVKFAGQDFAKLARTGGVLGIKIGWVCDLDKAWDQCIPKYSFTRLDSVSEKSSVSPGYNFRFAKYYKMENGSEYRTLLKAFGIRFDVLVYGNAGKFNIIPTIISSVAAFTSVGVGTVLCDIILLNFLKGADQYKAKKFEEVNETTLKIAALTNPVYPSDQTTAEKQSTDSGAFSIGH

| Compound | IC50 [nM] |
| --- | --- |
| C[C@@H](Cn1c(=O)[nH]/c(=N\c2ccc(Oc3ccc(Cl)nn3)cc2)n(Cc2ccc(Cl)cc2)c1=O)C(=O)O [Compound R-197] | 7 |
| C[C@@H](Cn1c(=O)[nH]/c(=N\c2ccc(Oc3cc(F)ncn3)cc2)n(Cc2ccc(Cl)cc2)c1=O)C(=O)O [Compound R-198] | 9 |
| COC(=O)[C@@H](C)Cn1c(=O)[nH]/c(=N\c2ccc(Oc3cncc(OC)c3)cc2)n(Cc2ccc(Cl)cc2)c1=O [Compound R-199] | 7 |
| COC(=O)C(C)(C)Cn1c(=O)[nH]/c(=N\c2ccc(Oc3cncc(OC)c3)cc2)n(Cc2ccc(Cl)cc2)c1=O [Compound R-200] | 8 |
| COc1cncc(Oc2ccc(/N=c3\[nH]c(=O)n(C[C@H](C)C(=O)O)c(=O)n3Cc3ccc(Cl)cc3)cc2)c1 [Compound R-201] | 8 |
| COc1cncc(Oc2ccc(/N=c3\[nH]c(=O)n(CC(C)(C)C(=O)O)c(=O)n3Cc3ccc(Cl)cc3)cc2)c1 [Compound R-202] | 12 |
| C[C@@H](Cn1c(=O)[nH]/c(=N\c2ccc(Oc3nc4ncccc4o3)cc2)n(Cc2ccc(Cl)cc2)c1=O)C(=O)O [Compound R-204] | 8 |
| COC(=O)[C@@H](C)Cn1c(=O)[nH]/c(=N\c2ccc(Oc3cccnc3)cc2)n(Cc2ccc(Cl)cc2)c1=O [Compound R-205] | 8 |
| COC(=O)[C@@H](C)Cn1c(=O)[nH]/c(=N\c2ccc(Oc3ccncc3)cc2)n(Cc2ccc(Cl)cc2)c1=O [Compound R-206] | 5 |
| C[C@@H](Cn1c(=O)[nH]/c(=N\c2ccc(Oc3cccnc3)cc2)n(Cc2ccc(Cl)cc2)c1=O)C(=O)O [Compound R-207] | 9 |
| C[C@@H](Cn1c(=O)[nH]/c(=N\c2ccc(Oc3ccncc3)cc2)n(Cc2ccc(Cl)cc2)c1=O)C(=O)O [Compound R-208] | 5 |
| C[C@@H](Cn1c(=O)[nH]/c(=N\c2ccc(Oc3nccnc3Cl)cc2)n(Cc2ccc(Cl)cc2)c1=O)C(=O)O [Compound R-211] | 7 |
| C[C@@H](C(=O)O)[C@H](C)n1c(=O)[nH]/c(=N\c2ccc(Oc3ccnc(C#N)c3)cc2)n(Cc2ccc(Cl)cc2)c1=O [Compound R-212] | 8 |
| COC(=O)[C@H](C)[C@H](C)n1c(=O)[nH]/c(=N\c2ccc(Oc3ncc(C)s3)cc2)n(Cc2ccc(C)cc2)c1=O [Compound R-213] | 12 |
| COC(=O)[C@@H](C)Cn1c(=O)[nH]/c(=N\c2ccc(Oc3ncc(C)s3)cc2)n(Cc2ccc(C)cc2)c1=O [Compound R-214] | 6 |
| COC(=O)C(C)(C)Cn1c(=O)[nH]/c(=N\c2ccc(Oc3ncc(C)s3)cc2)n(Cc2ccc(C)cc2)c1=O [Compound R-215] | 6 |
| Cc1ccc(Cn2c(=O)n([C@@H](C)[C@@H](C)C(=O)O)c(=O)[nH]/c2=N\c2ccc(Oc3ncc(C)s3)cc2)cc1 [Compound R-217] | 8 |
| Cc1ccc(Cn2c(=O)n(C[C@H](C)C(=O)O)c(=O)[nH]/c2=N\c2ccc(Oc3ncc(C)s3)cc2)cc1 [Compound R-218] | 6 |
| Cc1ccc(Cn2c(=O)n(CC(C)(C)C(=O)O)c(=O)[nH]/c2=N\c2ccc(Oc3ncc(C)s3)cc2)cc1 [Compound R-219] | 11 |

| Compound | IC50 [nM] |
| --- | --- |
| CCc1oc2ccc(/N=c3\[nH]c(=O)n(C[C@H](C)C(=O)OC)c(=O)n3Cc3ccc(C)cc3)cc2c1C [Compound R-220] | 22 |
| COC(=O)[C@@H](C)Cn1c(=O)[nH]/c(=N\c2ccc(Oc3ccnc(F)c3)cc2)n(Cc2ccc(C)cc2)c1=O [Compound R-221] | 5 |
| CCc1oc2ccc(/N=c3\[nH]c(=O)n(C[C@H](C)C(=O)O)c(=O)n3Cc3ccc(C)cc3)cc2c1C [Compound R-222] | 9 |
| Cc1ccc(Cn2c(=O)n(C[C@H](C)C(=O)O)c(=O)[nH]/c2=N\c2ccc(Oc3ccnc(F)c3)cc2)cc1 [Compound R-223] | 7 |
| C[C@@H](C(=O)O)[C@H](C)n1c(=O)[nH]/c(=N\c2ccc(Oc3cnc(C#N)cn3)cc2)n(Cc2ccc(Cl)cc2)c1=O [Compound R-224] | 12 |
| COC(=O)CCn1c(=O)[nH]/c(=N\c2ccc(Oc3ccccn3)cc2)n(Cc2ccc(Cl)cc2)c1=O [Compound R-225] | 4 |
| COC(=O)CCn1c(=O)[nH]/c(=N\c2ccc(Oc3ccccn3)cc2)n(Cc2ccc(C)cc2)c1=O [Compound R-226] | 3 |
| COC(=O)CCn1c(=O)[nH]/c(=N\c2ccc(-n3ccccc3=O)cc2)n(Cc2ccc(Cl)cc2)c1=O [Compound R-227] | 35 |
| NC(=O)CCn1c(=O)[nH]/c(=N\c2ccc(Oc3ccccn3)cc2)n(Cc2ccc(Cl)cc2)c1=O [Compound R-229] | 7 |
| CNC(=O)CCn1c(=O)[nH]/c(=N\c2ccc(Oc3ccccn3)cc2)n(Cc2ccc(Cl)cc2)c1=O [Compound R-230] | 5 |
| C[C@@H](Cn1c(=O)[nH]/c(=N\c2ccc(Oc3ccc4nccn4n3)cc2)n(Cc2ccc(Cl)cc2)c1=O)C(=O)O [Compound R-231] | 5 |
| COc1nc(=O)n(Cc2ccc(Cl)cc2)/c(=N/c2ccc(Oc3cccc(C#N)n3)cc2)[nH]1 [Compound R-232] | 61 |
| CC(C)(C)n1c(=O)[nH]/c(=N\c2ccc(Oc3cccc(C(N)=O)n3)cc2)n(Cc2ccc(Cl)cc2)c1=O [Compound R-233] | 318 |
| CC1(C)OC[C@H](Cn2c(=O)[nH]/c(=N\c3ccc(Oc4ccccn4)cc3)n(Cc3ccc(Cl)cc3)c2=O)O1 [Compound R-234] | 3 |
| O=c1[nH]/c(=N\c2ccc(Oc3ccccn3)cc2)n(Cc2ccc(Cl)cc2)c(=O)n1C[C@H](O)CO [Compound R-235] | 10 |
| CC1(Cn2c(=O)[nH]/c(=N\c3ccc(Oc4ccccn4)cc3)n(Cc3ccc(Cl)cc3)c2=O)COC(C)(C)OC1 [Compound R-236] | 4 |
| Cc1nccnc1Oc1ccc(/N=c2\[nH]c(=O)n(C[C@H](C)C(=O)O)c(=O)n2Cc2ccc(Cl)cc2)cc1 [Compound R-237] | 9 |
| COC(=O)Cn1c(=O)[nH]/c(=N\c2ccc(Oc3ccccn3)cc2)n(Cc2ccc(Cl)cc2)c1=O [Compound R-238, 1-(4-chlorobenzyl)-3-(methoxycarbonylmethyl)-6-[4-(2-pyridyloxy)phenylimino]-1,3,5-triazinane-2,4-dione] | 7 |
| O=C(O)Cn1c(=O)[nH]/c(=N\c2ccc(Oc3ccccn3)cc2)n(Cc2ccc(Cl)cc2)c1=O [Compound R-239, 1-(4-chlorobenzyl)-3-(hydroxylcarbonylmethyl)-6-[4-(2-pyridyloxy)phenylimino]-1,3,5-triazinane-2,4-dione] | 399 |

| Compound | IC50 [nM] |
| --- | --- |
| NC(=O)Cn1c(=O)[nH]/c(=N\c2ccc(Oc3ccccn3)cc2)n(Cc2ccc(Cl)cc2)c1=O [Compound R-240, 1-(4-chlorobenzyl)-3-(carbamoylmethyl)-6-[4-(2-pyridyloxy)phenylimino]-1,3,5-triazinane-2,4-dione] | 11 |
| CNC(=O)Cn1c(=O)[nH]/c(=N\c2ccc(Oc3ccccn3)cc2)n(Cc2ccc(Cl)cc2)c1=O [Compound R-241] | 9 |
| O=C(Cn1c(=O)[nH]/c(=N\c2ccc(Oc3ccccn3)cc2)n(Cc2ccc(Cl)cc2)c1=O)NCCO [Compound R-242] | 5 |
| O=C(Cn1c(=O)[nH]/c(=N\c2ccc(Oc3ccccn3)cc2)n(Cc2ccc(Cl)cc2)c1=O)NCC(F)(F)F [Compound R-243] | 4 |
| CC(CO)(CO)Cn1c(=O)[nH]/c(=N\c2ccc(Oc3ccccn3)cc2)n(Cc2ccc(Cl)cc2)c1=O [Compound R-244] | 4 |
| CC1(C)OCC(Cn2c(=O)[nH]/c(=N\c3ccc(Oc4ccccn4)cc3)n(Cc3ccc(Cl)cc3)c2=O)CO1 [Compound R-245] | 4 |
| C[C@@H](Cn1c(=O)[nH]/c(=N\c2ccc(Oc3cnc(C#N)nc3)cc2)n(Cc2ccc(Cl)cc2)c1=O)C(=O)O [Compound R-246] | 6 |
| CC1(C)OC[C@@H](Cn2c(=O)[nH]/c(=N\c3ccc(Oc4ccccn4)cc3)n(Cc3ccc(Cl)cc3)c2=O)O1 [Compound R-247] | 5 |
| O=c1[nH]/c(=N\c2ccc(Oc3ccccn3)cc2)n(Cc2ccc(Cl)cc2)c(=O)n1CCCOC1CCCCO1 (centres unmarked) [Compound R-248] | 5 |
| C[C@@H](C(=O)O)[C@H](C)n1c(=O)[nH]/c(=N\c2ccc(Oc3cnc(C#N)nc3)cc2)n(Cc2ccc(Cl)cc2)c1=O [Compound R-249] | 6 |
| O=c1[nH]/c(=N\c2ccc(Oc3ccccn3)cc2)n(Cc2ccc(Cl)cc2)c(=O)n1C[C@@H](O)CO [Compound R-250] | 9 |
| O=c1[nH]/c(=N\c2ccc(Oc3ccccn3)cc2)n(Cc2ccc(Cl)cc2)c(=O)n1CCCO [Compound R-251, 1-(4-chlorobenzyl)-3-(3-hydroxypropyl)-6-[4-(2-pyridyloxy)phenylimino]-1,3,5-triazinane-2,4-dione] | 5 |
| C=C(CO)Cn1c(=O)[nH]/c(=N\c2ccc(Oc3ccccn3)cc2)n(Cc2ccc(Cl)cc2)c1=O [Compound R-254, 1-(4-chlorobenzyl)-3-(2-hydroxymethyl-2-propenyl)-6-[4-(2-pyridyloxy)phenylimino]-1,3,5-triazinane-2,4-dione] | 3 |
| O=c1[nH]/c(=N\c2ccc(Oc3ccccn3)cc2)n(Cc2ccc(Cl)cc2)c(=O)n1CC(O)(CO)CO [Compound R-255, 1-(4-chlorobenzyl)-3-(2-hydroxymethyl-2,3-dihydroxypropyl)-6-[4-(2-pyridyloxy)phenylimino]-1,3,5-triazinane-2,4-dione] | 5 |
| NC(=O)NC(=O)Cn1c(=O)[nH]/c(=N\c2ccc(Oc3ccccn3)cc2)n(Cc2ccc(Cl)cc2)c1=O [Compound R-256] | 2 |
| O=c1[nH]/c(=N\c2ccc(Oc3ccccn3)cc2)n(Cc2ccc(Cl)cc2)c(=O)n1CCO [Compound R-257, 1-(4-chlorobenzyl)-3-(2-hydroxyethyl)-6-[4-(2-pyridyloxy)phenylimino]-1,3,5-triazinane-2,4-dione] | 10 |
| O=C(O)CCn1c(=O)[nH]/c(=N\c2ccc(Oc3cccc(F)n3)cc2)n(Cc2ccc(CF)cc2)c1=O [Compound R-275] | 23 |
| O=C(O)CCn1c(=O)[nH]/c(=N\c2ccc(Oc3ncccc3F)cc2)n(Cc2ccc(CF)cc2)c1=O [Compound R-276] | 42 |
